This assay has as its system OLFML3. The experiment in a line: RT-qPCR of OLFML3 in PTEN-KO SF763 cells. The note with it: shC PTEN-KO SF763 cells; SC75741 5 μM; 8 hours. It is filed as cell-based, human. How it is done: Cell Culture. The GBM cell lines U87, U251, SF763, LN229, and CT2A, as well as 293T cells were cultured in Dulbecco's Modified Eagle's Medium (DMEM; Gibco, #11995-065). The mouse glioma cell line GL261 cells and SIM-A9 microglia were cultured in Dulbecco's Modified Eagle Medium-Ham's F12 medium (Gibco, #10565-018). HMC3 microglia were cultured in Eagle's Minimum Essential Medium (ATCC, #30-2003). THP-1 macrophages were cultured in RPMI 1640 medium (Gibco, #11875093). All cell lines were cultured in the indicated medium containing 10% fetal bovine serum (FBS; Fisher Scientific, #16140071) and 1:100 antibiotic-antimycotic (Gibco, #15140-122), and were purchased from the American Type Culture Collection (ATCC). Human GSCs (GSC23 and GSC7-10) and mouse GBM tumor-derived 005 GSCs and QPP7 GSCs were cultured in neural stem cell (NSC) proliferation media (Millipore, #SCM005) containing 20 ng/mL epidermal growth factor (EGF; PeproTech, #AF-100-15) and basic fibroblast growth factor (bFGF; PeproTech, #100-18B). Human GSCs were gifted by Dr. Frederick F. Lang from the Brain Tumor Center (The University of Texas MD Anderson Cancer Center). […]
Quantitative real-time PCR (RT-qPCR). […] RNA was quantified by NanoDrop spectrophotometers and then the All-In-One 5× RT MasterMix (Applied Biological Materials, #G592) was used to reverse-transcribe RNA into cDNA in T100 Thermal Cycler (Bio-Rad). […]
(In general: Quantitative PCR measures a nucleic acid by following its amplification.)

With `O=C(c1ccccc1)c1ccc2nc(NC(=O)c3csc(C4CCN(c5ncnc6ccsc56)CC4)n3)[nH]c2c1` [SC75741], the “mRNA expression of OLFML3” value was “upregulated”.

For the origin of these results see patent US20250186396A1, “COMPOSITIONS AND METHODS FOR THE TREATMENT OF GLIOBLASTOMA WITH A DUAL TARGETING ANTI-TUMOR COMPOSITION” (Northwestern University, priority 2023, published 2025).
